# In patent US9771357B2, “ALXR agonist compound” (ONO PHARMACEUTICAL CO., LTD., priority 2013, dated 2017):
# Target: T1, ALXR (Homo sapiens, UniProt P25090)
# T1 construct: expressed in transfected cells; host or cells: CHO-K1
# T1 sequence (P25090 1-351): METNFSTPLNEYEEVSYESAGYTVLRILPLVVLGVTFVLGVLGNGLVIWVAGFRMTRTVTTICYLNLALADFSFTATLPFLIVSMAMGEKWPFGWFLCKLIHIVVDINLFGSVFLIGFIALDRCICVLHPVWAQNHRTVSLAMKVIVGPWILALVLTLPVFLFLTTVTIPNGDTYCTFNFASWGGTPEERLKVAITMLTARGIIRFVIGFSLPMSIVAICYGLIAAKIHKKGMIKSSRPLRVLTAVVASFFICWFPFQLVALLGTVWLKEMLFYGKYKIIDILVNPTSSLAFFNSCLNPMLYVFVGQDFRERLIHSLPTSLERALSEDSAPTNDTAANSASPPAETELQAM
# Test: IP1 (Inositol Monophosphate) Assay
# Assay type: cell-based
# Conditions: ALXR/Gα16 expression CHO-K1 cell strain; 3 μM
# Protocol: IP1 (Inositol Monophosphate) Assay
# An ALXR/Gα16 expression CHO-K1 cell strain having 3×10^4 cells/100 μL was seeded on a 96-well plate using an F-12 culture medium (10% FBS, 100 μmol/L nonessential amino acid, 100 U/mL penicillin, 100 μg/mL streptomycin, 0.25 μg/mL Amphotericin B, 400 μg/mL Geneticin, and 5 μg/mL Puromycin), and cultured at 37° C. in 5% CO2 overnight. After the culture supernatant was removed, a 70-μL Basal buffer (10 mmol/L HEPES, 1 mmol/L CaCl2, 0.5 mmol/L MgCl2, 4.2 mmol/L KCl, 146 mmol/L NaCl, 5.5 mmol/L glucose, 50 mmol/L LiCl), each buffer containing one of the compounds and the reference example compound, was added. Here, as the medium group, a Basal buffer containing 1% DMSO was used. After the cell strain was further cultured at 37° C. in 5% CO2 for 30 minutes, IP1-d2 conjugate (Cisbio) and Anti-IP1 cryptate Tb conjugate (Cisbio) diluted with Lysis buffer (Cisbio) were each added in an amount of 15 μL. The culture was allowed to stand for 1 hour under shaded conditions at room temperature. Subsequently, using EnVision (PerkinElmer), measurement was performed at an excitation wavelength of 320 nm and fluorescence wavelengths of 620 nm and 665 nm, and the fluorescence ratio 665 nm/620 nm was calculated. With respect to the IP1 concentration, a calibration curve was produced using an IP1 calibrator (Cisbio) to be converted into concentration. The measured values were analyzed using XLfit (IDBS).
row,Compound,enhancement of IP1 concentration as compared with the medium group
1,"O=C(Nc1cccnc1)N1CCC(c2nc(-c3ccccc3)cs2)CC1 [Reference Example Compound, 4-(4-Phenyl-1,3-thiazol-2-yl)-N-(3-pyridyl)-1-piperidinecarboxamide, reference compound]",no enhancement was seen

# Same assay, conditions: compound at 3 μM; ALXR/Gα16 expression CHO-K1 cell strain; 30 minutes; medium group 293.6
row,Compound,IP1 Concentration [nmol/L]
1,"Cc1sc(C2(O)CCN(C(=O)Nc3ccc(C(F)(F)F)cc3)CC2)nc1-c1cccc(F)c1 [27(1), 4-[4-(3-Fluorophenyl)-5-methyl-1,3-thiazol-2-yl]-4-hydroxy-N-[4-(trifluoromethyl)phenyl]-1-piperidinecarboxamide]",539.3
2,Cc1sc(C2CCN(C(=O)Nc3ccc(C(F)(F)F)cc3)CC2)nc1-c1cccc(F)c1 [29(2)],853.7
3,"O=C(Nc1ccc(C(F)(F)F)cc1)N1CCC(c2nc(-c3cccnc3)cs2)CC1 [Example 40, 4-[4-(3-Pyridyl)-1,3-thiazol-2-yl]-N-[4-(trifluoromethyl)phenyl]-1-piperidinecarboxamide]",789.9
4,"Cc1sc(C2(NS(C)(=O)=O)CCN(C(=O)Nc3ccc(C(F)(F)F)cc3)CC2)nc1-c1ccccc1 [Example 51, 4-(5-Methyl-4-phenyl-1,3-thiazol-2-yl)-4-[(methylsulfonyl)amino]-N-[4-(trifluoromethyl)phenyl]-1-piperidinecarboxamide]",592.1
5,"N#Cc1sc(C2CCN(C(=O)Nc3ccc(C(F)(F)F)cc3)CC2)nc1-c1ccccc1 [Example 60, 4-(5-Cyano-4-phenyl-1,3-thiazol-2-yl)-N-[4-(trifluoromethyl)phenyl]-1-piperidinecarboxamide]",1020.9
6,"O=C(Nc1cccnc1)N1CCC(c2nc(-c3ccccc3)cs2)CC1 [Reference Example Compound, 4-(4-Phenyl-1,3-thiazol-2-yl)-N-(3-pyridyl)-1-piperidinecarboxamide, reference compound]",282.5
